# According to ChEMBL document CHEMBL1201862, “PubChem BioAssay data set” (2004):
# Values joined by “and” are separate entries in the source; they are usually repeats but may differ in a detail not shown here. Equal entries are not always repeated. Active and inactive are the calls of the source.
# How the values were obtained:
# [1] = Luminescence Cell-Based Dose Confirmation HTS to Identify Activators of 5'UTR Stem-Loop Driven Alpha-Synuclein mRNA Translation in H4 Neuroglioblastoma Cells. [Related pubchem assays: 1829 (Project Summary), 1814 (Primary HTS)]; type: functional
# [2] = Luminescence Cell-Based Dose Response HTS to Identify Activators of Luciferase Translation or Activity in H4 […] Cells. [Related pubchem assays: 1829 (Project Summary), 1814 (Primary HTS)]; type: functional
# [3] = biological target: T1, RNA-binding protein pos-1 (Caenorhabditis elegans, UniProt G5EF15); experiment: disruptors of C. elegans POS-1 RNA interaction – biochemical, fluorescence polarization, dose response (AID 1964);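 note: purified POS-1 fused to maltose binding protein made in E. coli; potency of compounds blocking POS-1 binding to fluorescent RNA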
# T1 sequence (G5EF15 whole entry): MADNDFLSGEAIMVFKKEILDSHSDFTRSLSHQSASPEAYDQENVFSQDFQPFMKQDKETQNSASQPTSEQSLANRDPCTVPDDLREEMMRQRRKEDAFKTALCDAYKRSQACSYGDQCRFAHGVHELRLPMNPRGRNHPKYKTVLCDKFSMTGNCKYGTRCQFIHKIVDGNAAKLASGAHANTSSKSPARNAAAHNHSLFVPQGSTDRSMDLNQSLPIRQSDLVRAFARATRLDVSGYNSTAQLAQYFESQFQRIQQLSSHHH
# [4] = biological target: T2, Zinc finger protein mex-5 (Caenorhabditis elegans, UniProt Q9XUB2); experiment: potency of MEX-5 RNA-binding blockers – biochemical, C. elegans, fluorescence polarization, dose response (AID 1960)
# T2 sequence (Q9XUB2 whole entry): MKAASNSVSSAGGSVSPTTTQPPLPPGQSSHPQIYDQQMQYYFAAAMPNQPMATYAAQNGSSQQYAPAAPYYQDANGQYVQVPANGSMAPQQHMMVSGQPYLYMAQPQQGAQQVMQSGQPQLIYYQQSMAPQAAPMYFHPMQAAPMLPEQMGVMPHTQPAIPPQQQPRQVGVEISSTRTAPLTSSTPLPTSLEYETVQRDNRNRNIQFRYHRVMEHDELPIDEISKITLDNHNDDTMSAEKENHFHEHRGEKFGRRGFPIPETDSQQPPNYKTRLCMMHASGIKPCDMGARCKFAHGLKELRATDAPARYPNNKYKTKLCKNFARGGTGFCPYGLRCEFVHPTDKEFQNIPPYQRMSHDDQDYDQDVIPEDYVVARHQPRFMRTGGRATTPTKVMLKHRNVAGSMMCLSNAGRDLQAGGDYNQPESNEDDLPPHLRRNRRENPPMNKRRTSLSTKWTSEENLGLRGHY
# [5] = biological target: T3, Heat shock factor protein 1 (Mus musculus, UniProt P38532); experiment: enhancement of HSF1-driven luciferase signal – cell-based, NIH3T3, luminescence, dose retest, confirmation (AID 435004); type: functional;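 note: stress induced by proteasome inhibitor MG132 added 30 min after compound; luciferase reporter driven by HSF1 response element in NIH3T3 cells; actives raise luminescence as potentiators of the MG132 stress response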
# T3 sequence (P38532 whole entry): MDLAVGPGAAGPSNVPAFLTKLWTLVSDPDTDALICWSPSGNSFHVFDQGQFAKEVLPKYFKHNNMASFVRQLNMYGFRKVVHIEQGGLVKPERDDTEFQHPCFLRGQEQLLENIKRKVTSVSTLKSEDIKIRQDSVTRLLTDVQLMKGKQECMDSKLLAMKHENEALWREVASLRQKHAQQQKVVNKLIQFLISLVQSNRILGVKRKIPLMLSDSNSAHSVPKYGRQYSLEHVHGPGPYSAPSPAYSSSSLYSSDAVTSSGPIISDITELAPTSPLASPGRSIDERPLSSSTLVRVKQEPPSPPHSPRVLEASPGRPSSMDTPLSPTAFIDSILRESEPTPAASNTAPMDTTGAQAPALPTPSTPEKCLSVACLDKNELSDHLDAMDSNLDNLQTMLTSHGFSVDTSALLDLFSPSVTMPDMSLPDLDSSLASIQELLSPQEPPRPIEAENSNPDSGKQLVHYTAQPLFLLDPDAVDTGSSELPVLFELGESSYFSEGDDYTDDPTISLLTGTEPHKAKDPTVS
# Cytochrome P450 2D6 = Cytochrome P450 2D6 (Homo sapiens, UniProt P10635);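 note: CYP2D6 member of a cytochrome P450 panel assay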
# Cytochrome P450 3A4 = Cytochrome P450 3A4 (Homo sapiens, UniProt P08684);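 note: CYP3A4 tested as one member of a cytochrome P450 panel screen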
# Protein skinhead-1 = biological target: T4, Protein skinhead-1 (Caenorhabditis elegans, UniProt P34707); type: functional
# T4 sequence (P34707 whole entry): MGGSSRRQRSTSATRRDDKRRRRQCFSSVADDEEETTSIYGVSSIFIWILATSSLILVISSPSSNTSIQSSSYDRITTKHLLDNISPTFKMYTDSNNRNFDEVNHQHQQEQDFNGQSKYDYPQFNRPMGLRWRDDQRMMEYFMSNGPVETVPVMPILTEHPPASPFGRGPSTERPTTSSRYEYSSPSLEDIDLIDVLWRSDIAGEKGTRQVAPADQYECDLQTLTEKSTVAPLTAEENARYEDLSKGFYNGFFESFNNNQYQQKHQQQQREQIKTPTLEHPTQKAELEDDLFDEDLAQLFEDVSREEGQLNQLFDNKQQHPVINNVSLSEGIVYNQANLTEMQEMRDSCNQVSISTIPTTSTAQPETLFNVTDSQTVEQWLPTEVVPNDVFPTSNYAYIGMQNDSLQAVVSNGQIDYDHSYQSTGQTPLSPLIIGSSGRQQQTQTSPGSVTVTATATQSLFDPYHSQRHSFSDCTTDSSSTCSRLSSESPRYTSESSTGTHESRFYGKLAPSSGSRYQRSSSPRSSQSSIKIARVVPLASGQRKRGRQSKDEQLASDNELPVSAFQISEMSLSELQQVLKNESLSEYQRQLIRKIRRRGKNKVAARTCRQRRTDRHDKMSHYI
# Cytochrome P450 2C9 = Cytochrome P450 2C9 (Homo sapiens, UniProt P11712)
# Cytochrome P450 2C19 = Cytochrome P450 2C19 (Homo sapiens, UniProt P33261); experiment: Cytochrome panel assay with activity outcomes. Panel member name: p450-cyp2c19 Compounds with AC50 equal or less than 10 uM are considered active; type: functional; conditions: read-out: AC50
# INS1 = experiment: INS-1E survival protection against cytokine death – cell-based, luminescence, retest, dose response (AID 449756); type: functional; conditions: Rattus norvegicus;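 note: cell death triggered by IL-1 beta plus TNF-alpha plus IFN-gamma mixture; protective hits raise ATP signal compared with cytokine alone wells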
# Cytochrome P450 1A2 = biological target: T5, Cytochrome P450 1A2 (Homo sapiens, UniProt P05177);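 note: PubChem cytochrome P450 panel assay, CYP1A2 panel member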
# T5 sequence (P05177 whole entry): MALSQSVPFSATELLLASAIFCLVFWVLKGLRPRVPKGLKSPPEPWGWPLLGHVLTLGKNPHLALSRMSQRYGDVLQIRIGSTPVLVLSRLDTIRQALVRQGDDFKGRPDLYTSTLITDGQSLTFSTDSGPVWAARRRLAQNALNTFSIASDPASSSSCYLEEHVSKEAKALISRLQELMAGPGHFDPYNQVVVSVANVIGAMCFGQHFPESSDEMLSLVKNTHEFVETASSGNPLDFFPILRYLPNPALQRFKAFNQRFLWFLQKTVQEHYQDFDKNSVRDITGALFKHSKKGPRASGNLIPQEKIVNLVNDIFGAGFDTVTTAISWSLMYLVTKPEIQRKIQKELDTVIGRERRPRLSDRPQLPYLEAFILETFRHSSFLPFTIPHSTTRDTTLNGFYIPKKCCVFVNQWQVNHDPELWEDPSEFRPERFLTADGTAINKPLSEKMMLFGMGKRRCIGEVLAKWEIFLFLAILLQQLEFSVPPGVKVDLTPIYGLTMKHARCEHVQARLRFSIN
# [6] = P. falciparum Dd2 growth inhibitors, dose response, SYBR Green, cherry-picked samples (AID 1159567); type: functional, cell-based
# Chain of Cytochrome P450 2D6 (P10635 whole entry): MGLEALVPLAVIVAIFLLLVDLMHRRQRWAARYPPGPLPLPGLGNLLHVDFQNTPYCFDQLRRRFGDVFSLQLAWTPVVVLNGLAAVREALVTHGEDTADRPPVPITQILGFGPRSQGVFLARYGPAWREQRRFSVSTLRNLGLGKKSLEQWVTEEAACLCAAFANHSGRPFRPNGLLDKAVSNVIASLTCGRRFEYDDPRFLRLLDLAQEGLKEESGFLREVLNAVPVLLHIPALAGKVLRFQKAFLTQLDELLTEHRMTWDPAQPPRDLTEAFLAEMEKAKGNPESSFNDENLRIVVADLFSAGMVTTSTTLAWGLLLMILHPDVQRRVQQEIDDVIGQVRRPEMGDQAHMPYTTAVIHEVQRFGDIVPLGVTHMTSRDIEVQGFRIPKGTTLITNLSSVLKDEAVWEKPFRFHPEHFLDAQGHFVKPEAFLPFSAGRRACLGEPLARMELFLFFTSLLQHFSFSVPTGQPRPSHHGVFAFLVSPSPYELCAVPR
# Chain of Cytochrome P450 3A4 (P08684 whole entry): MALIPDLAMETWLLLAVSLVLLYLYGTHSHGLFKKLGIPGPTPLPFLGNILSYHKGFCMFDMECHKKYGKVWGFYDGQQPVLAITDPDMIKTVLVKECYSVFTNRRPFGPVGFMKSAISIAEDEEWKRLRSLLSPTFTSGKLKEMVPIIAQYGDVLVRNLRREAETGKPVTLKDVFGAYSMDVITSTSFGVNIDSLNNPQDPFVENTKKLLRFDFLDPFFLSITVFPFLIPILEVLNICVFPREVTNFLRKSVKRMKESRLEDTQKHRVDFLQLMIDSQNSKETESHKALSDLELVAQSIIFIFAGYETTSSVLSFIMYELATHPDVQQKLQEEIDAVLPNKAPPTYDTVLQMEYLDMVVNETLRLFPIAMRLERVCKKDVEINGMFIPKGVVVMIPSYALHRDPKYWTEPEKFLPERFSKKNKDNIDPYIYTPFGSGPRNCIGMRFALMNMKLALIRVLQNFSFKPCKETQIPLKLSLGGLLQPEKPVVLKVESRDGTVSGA
# Chain of Cytochrome P450 2C19 (P33261 whole entry): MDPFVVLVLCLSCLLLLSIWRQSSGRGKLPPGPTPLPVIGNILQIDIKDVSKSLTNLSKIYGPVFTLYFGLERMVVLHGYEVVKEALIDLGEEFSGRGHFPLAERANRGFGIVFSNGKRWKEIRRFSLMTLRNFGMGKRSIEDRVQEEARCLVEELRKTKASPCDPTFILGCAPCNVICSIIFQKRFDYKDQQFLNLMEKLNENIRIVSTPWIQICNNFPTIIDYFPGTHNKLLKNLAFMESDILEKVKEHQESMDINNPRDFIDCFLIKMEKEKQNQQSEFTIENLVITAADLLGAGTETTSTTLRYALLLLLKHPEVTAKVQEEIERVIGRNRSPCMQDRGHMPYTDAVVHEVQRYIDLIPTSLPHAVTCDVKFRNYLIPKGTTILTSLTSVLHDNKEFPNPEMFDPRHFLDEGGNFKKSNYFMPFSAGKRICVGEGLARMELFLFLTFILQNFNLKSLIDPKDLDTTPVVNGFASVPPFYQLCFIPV
# Chain of Cytochrome P450 2C9 (P11712 whole entry): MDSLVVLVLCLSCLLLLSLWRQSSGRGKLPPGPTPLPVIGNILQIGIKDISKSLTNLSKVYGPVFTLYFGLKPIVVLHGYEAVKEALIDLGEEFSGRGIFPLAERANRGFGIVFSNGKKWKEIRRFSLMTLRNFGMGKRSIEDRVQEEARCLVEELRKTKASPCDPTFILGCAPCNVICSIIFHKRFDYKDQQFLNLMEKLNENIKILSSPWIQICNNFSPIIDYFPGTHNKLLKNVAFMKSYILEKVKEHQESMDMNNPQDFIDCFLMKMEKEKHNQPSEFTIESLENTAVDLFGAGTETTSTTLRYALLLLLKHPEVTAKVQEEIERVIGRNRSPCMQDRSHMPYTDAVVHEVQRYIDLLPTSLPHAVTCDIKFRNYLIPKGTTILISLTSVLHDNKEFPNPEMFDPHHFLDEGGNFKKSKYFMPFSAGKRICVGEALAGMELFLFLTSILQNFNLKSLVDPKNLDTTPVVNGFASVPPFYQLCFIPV
compound,measurement,setting,value
Cc1ccccc1/C=C1\CCCc2ccccc2C1=O,EC50,[1],0.172 µM (active)
same,EC50,[2],328 nM (active)
COc1ccccc1-c1cnn2c(NCc3ccccc3)cc(C)nc12,EC50,[3],> 300 µM (not active)
same,EC50,[4],> 300 µM (not active)
CC1(OC(=O)c2cccs2)C(=O)C=C2C=C(c3ccc(C#N)cc3)OC=C2C1=O (stereo not given),EC50,[3],93.2 µM (active)
same,EC50,[4],31.3 µM (active)
Cc1nc(Sc2ccc(Br)cc2)c(C#N)c(C)c1[N+](=O)[O-],EC50,[5],125 µM (active)
CSc1ccc(Cl)c(C(=O)OCC(=O)N(C)CCC#N)c1,EC50,[5],> 260 µM (inactive)
Cc1ccc(-c2ccccc2)n1-c1ccc(C(=O)O)cc1,EC50,[3],> 300 µM (not active)
same,EC50,[4],> 300 µM (not active)
COc1ccc(C(=O)N(C)CC(O)c2ccccc2)cc1OC1CCN(C(C)=O)CC1 (stereo not given),EC50,[5],> 260 µM (inactive)
CN1CC[C@@]2(CCN3CCc4c(oc5ccccc45)[C@@H]3C2)N(C)C1=O,AC50,Cytochrome P450 2D6,31.6 µM (inconclusive)
same,AC50,Cytochrome P450 3A4,12.6 µM (inconclusive)
CCCCn1nnnc1NCc1ccc(C)s1,IC50,Protein skinhead-1,> 100 µM (inactive)
C[C@H](N)Cc1c[nH]c2ccc(O)cc12,AC50,Cytochrome P450 2D6,15.8 µM (inconclusive) and 39.8 µM (inconclusive)
CCC(=O)c1ccc(OCC(O)CN2CCN(S(=O)(=O)N3CCCCC3)CC2)cc1 (stereo not given),IC50,Protein skinhead-1,> 100 µM (inactive)
c1ccc(-c2noc(-c3cccc4ccccc34)n2)cc1,IC50,Protein skinhead-1,18.8 µM (active)
COc1cc(C2C3CN(C)CC=C3C(C#N)=C(N)C2(C#N)C#N)ccc1OC(C)C (stereo not given),EC50,[3],> 300 µM (inconclusive)
same,EC50,[4],31.3 µM (active)
COc1cc(CC(=O)OC2CCOC2=O)cc(OC)c1OC (stereo not given),AC50,Cytochrome P450 2C9,39.8 µM (inconclusive)
same,AC50,Cytochrome P450 2C19,8.91 µM (inconclusive)
O=C(CSc1nnc(CN2CCOCC2)n1-c1ccc(Cl)cc1)N1CCc2ccccc21,IC50,Protein skinhead-1,> 100 µM (inactive)
CCOC(=O)/C=C/C(=O)N1CCc2ccccc21,EC50,[5],24.7 µM (active)
Cc1ccc(NC(=O)c2c(Cl)n(C)c3ccccc23)cc1,EC50,[5],31.5 µM (active)
CCN(CC)c1nc(C)nc2c1cnn2CCc1ccccc1,EC50,[1],85.2 µM (active)
same,EC50,[2],92100 nM (active)
N#C/C(=C\c1cn(Cc2ccccc2)c2ccccc12)C(=O)NCc1ccco1,EC50,[5],35.6 µM (active)
Fc1ccc(-c2nc(-c3cnccn3)no2)c(Cl)c1,EC50,[5],> 260 µM (inactive)
same,IC50,Protein skinhead-1,> 100 µM (inactive)
CCOc1ccc(CN(C)C(=O)CNC(=O)c2ccc3ccccc3c2)cc1OC,EC50,[5],> 260 µM (inactive)
COc1ccccc1CCn1c(=O)c(-c2ccccc2)nc2cncnc21,AC50,Cytochrome P450 2D6,12.6 µM (inconclusive)
COc1ccc([C@H]2CC(=O)C=C(c3ccnc4ccc(Cl)cc34)C2)cc1,AC50,INS1,2.64 µM (active)
COc1cccc(Cn2c(=O)c(-c3ccc(Cl)cc3)nc3cnc(N4CCNCC4)nc32)c1,AC50,Cytochrome P450 2D6,39.8 µM (inconclusive)
same,AC50,Cytochrome P450 3A4,15.8 µM (inconclusive)
Clc1ccc(OCCCCCN2CCOCC2)cc1,IC50,Protein skinhead-1,53.9 µM (inactive)
O=C(CN1C(=O)NC2(CCCCCC2)C1=O)c1ccc2c(c1)OCCO2,EC50,[1],4.64 µM (active)
same,EC50,[2],676 nM (active)
COc1nnc(-c2ccc(N3CCCCC3)c(NC(=O)C3CCCCC3)c2)c2ccccc12,AC50,INS1,6.09 µM (active)
CCCn1nc2cc(C(=O)NCc3ccc(OC(F)(F)F)cc3)ccc2c1OCC,IC50,Protein skinhead-1,16.4 µM (active)
O=C(c1cccnc1)C1Cc2ccccc2C1=O (stereo not given),IC50,Protein skinhead-1,> 100 µM (inactive)
C=CCOc1ccc(C2OC34CCCCC3C(C#N)(C#N)C2(C#N)C(=N)O4)cc1 (stereo not given),EC50,[3],12.5 µM (active)
same,EC50,[4],9.41 µM (active)
COC(=O)c1ccc(Nc2cc(C)nc3ncnn23)cc1,IC50,Protein skinhead-1,> 100 µM (inactive)
CC(C)c1cccc(C(C)C)c1OC(=O)[C@H]1OC(C(C)(C)C)=C[C@@H]1c1ccccc1,AC50,INS1,7.46 µM (active)
O=C(C1=C[C@@H](c2ccc(C(F)(F)F)cc2)C[C@@H](OCCCCO)O1)N1CCN(Cc2ccccc2)CC1,AC50,INS1,5.94 µM (active)
O=C(O)CCCCCNC(=O)c1ccncc1,AC50,Cytochrome P450 2C9,25.1 µM (inconclusive)
same,AC50,Cytochrome P450 2C19,39.8 µM (inconclusive)
same,AC50,Cytochrome P450 1A2,10 nM (inconclusive)
O=C(Nc1cc(-c2ccccc2)nn1C1CCCCC1)c1ccc(Cl)cc1,AC50,INS1,5.2 µM (active)
Cc1ccc(NC(=O)CSCc2cc(=O)n3ccsc3n2)cc1,IC50,Protein skinhead-1,> 100 µM (inactive)
CC(=O)n1c(/C=N/c2ccccc2)c(O)c2ccccc21,EC50,[3],> 300 µM (not active)
same,EC50,[4],> 300 µM (not active)
CCN(CC(=O)Nc1ccccc1C(F)(F)F)C(=O)c1ccc(NC(=O)c2cccs2)cc1,IC50,Protein skinhead-1,> 100 µM (inactive)
O=C(N/N=C\c1cc([N+](=O)[O-])ccc1N1CCCC1)c1ccccn1,EC50,[3],149 µM (inconclusive)
same,EC50,[4],70.5 µM (inconclusive)
CCCC(=O)O/N=C(\c1ccccc1)c1ccncc1,EC50,[5],> 260 µM (inactive)
CCCNC(=O)N1[C@H](C#N)[C@@H](c2ccccc2C2=CCCC2)[C@@H]1CO,AC50,[6],7.07 µM (active)
COc1ccccc1-c1ccc([C@@H]2[C@@H](CO)N3CCCCN(C(=O)c4ccncc4)C[C@@H]23)cc1,AC50,[6],14.1 µM (active)
O=C(C[C@@H]1C[C@H]2c3cc(NS(=O)(=O)c4ccc(F)cc4)ccc3O[C@H]2[C@H](CO)O1)N1CCc2ccccc2C1,AC50,[6],9.73 µM (active)
COCC(=O)Nc1ccc2c(c1)C(=O)N(C)C[C@H](OC)[C@H](C)CN(Cc1cc(F)ccc1F)[C@H](C)CO2,AC50,[6],3.74 µM (active)
